Assay results as given in article PMC9832378 (Drug Metabolism and Disposition, 2023).
Where two headings read alike, the source gives them in different places.

Assays:
[1] = tested on: COX formation in pooled HLMs; conditions: 500 μM COT, vs control without inhibitor
CYP2C19 = CYP2C19 (Homo sapiens, UniProt P33261); conditions: UM2C19/EM2C19 genotype groups compared with PM2C19 genotype group; ref Li-Wan-Po et al., 2010; cited from earlier work
[2] = urine of Caucasian smokers; ref Rangiah et al., 2011; cited from earlier work
P450 = conditions: rat, in vivo; cited from earlier work
CYP2A6 = conditions: formation of COT from nicotine, ref Yamanaka et al., 2005; cited from earlier work
[3] = in smokers; no reference given; cited from earlier work
CYP2B6 [4] = conditions: formation of COT from nicotine, ref Yamanaka et al., 2005; cited from earlier work
[5] = ref Jarvis et al., 1988; cited from earlier work
CYP2B6 [6] = molecular target: T1, CYP2B6 (Homo sapiens, UniProt P20813); format: in vitro ADME; conditions: microsomes of HEK293 cells overexpressing CYP2B6
T1 sequence (P20813 1-491): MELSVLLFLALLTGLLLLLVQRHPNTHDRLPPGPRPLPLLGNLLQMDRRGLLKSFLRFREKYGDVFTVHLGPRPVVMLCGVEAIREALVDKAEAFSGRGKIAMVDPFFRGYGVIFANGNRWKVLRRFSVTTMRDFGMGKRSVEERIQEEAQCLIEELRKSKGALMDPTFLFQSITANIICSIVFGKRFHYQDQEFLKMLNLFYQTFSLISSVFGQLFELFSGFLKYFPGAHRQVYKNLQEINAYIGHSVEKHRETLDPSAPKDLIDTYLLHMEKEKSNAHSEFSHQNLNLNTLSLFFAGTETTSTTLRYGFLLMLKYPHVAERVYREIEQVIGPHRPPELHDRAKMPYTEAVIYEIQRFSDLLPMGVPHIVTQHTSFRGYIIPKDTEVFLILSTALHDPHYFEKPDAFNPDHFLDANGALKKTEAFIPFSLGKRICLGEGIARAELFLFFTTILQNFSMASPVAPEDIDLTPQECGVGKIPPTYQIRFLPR

CYP3A4 = CYP3A4 (Homo sapiens, UniProt P08684); format: in vitro ADME; conditions: microsomes of HEK293 cells overexpressing CYP3A4
CYP3A4, sequence (P08684 whole entry): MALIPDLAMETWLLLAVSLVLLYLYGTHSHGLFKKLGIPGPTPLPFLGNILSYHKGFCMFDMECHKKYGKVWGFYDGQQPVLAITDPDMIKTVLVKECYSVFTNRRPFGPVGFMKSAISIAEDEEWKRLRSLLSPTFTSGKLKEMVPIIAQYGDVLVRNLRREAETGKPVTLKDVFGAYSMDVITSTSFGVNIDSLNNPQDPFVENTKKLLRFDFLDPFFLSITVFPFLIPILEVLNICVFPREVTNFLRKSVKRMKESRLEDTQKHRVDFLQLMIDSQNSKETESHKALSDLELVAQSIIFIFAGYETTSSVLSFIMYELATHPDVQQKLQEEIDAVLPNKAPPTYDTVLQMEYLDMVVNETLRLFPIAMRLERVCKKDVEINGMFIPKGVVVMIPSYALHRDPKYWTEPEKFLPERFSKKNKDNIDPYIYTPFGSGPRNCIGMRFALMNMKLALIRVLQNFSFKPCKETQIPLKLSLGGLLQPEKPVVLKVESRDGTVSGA

[7] = Kinetic analysis of COX formation in pooled HLMs; format: in vitro ADME, human; conditions: pooled HLMs from 20 individuals
CYP2E1 = CYP2E1 (Homo sapiens, UniProt P05181); format: in vitro ADME; conditions: microsomes of HEK293 cells overexpressing CYP2E1
CYP2E1, sequence (P05181 whole entry): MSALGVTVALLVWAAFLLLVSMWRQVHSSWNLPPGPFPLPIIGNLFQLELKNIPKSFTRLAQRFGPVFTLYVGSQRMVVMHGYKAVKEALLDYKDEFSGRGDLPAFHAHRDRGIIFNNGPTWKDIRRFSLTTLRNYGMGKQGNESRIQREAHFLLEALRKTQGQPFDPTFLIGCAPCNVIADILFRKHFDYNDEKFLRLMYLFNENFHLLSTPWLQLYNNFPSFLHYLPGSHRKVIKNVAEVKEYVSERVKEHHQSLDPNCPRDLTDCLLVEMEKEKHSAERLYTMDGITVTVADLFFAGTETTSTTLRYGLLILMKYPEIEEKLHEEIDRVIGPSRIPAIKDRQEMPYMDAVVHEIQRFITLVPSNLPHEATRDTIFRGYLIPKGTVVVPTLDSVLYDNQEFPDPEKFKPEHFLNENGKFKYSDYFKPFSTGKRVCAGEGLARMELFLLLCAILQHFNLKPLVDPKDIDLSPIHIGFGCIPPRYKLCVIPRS

CYP2C19, sequence (P33261 whole entry): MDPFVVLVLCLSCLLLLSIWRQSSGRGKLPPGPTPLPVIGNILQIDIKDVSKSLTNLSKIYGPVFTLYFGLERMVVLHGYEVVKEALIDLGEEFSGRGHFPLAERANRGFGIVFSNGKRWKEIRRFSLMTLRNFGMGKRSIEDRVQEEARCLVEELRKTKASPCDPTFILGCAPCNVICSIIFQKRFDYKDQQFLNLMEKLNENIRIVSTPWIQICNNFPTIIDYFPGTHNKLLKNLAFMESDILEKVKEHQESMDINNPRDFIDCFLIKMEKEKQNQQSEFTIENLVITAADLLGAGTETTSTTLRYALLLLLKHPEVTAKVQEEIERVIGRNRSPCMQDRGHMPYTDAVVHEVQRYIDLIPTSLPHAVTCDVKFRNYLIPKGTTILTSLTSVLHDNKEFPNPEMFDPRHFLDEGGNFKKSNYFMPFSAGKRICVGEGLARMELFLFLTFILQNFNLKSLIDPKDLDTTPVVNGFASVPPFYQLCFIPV

For COC(=O)[C@H](c1ccccc1Cl)N1CCc2sccc2C1 [clopidogrel], the “decrease in COX formation” value ([1]; 10 µM inhibitor) is listed as 21% and the increased enzyme efficacy (CYP2C19) is listed as 35%–40%.

For COc1ccc2[nH]c([S+]([O-])Cc3ncc(C)c(OC)c3C)nc2c1 (stereo not shown) [omeprazole], the increased enzyme efficacy (CYP2C19) is listed as 35%–40%.

For O=C1CCC(c2cccnc2)N1CO (stereo not shown) [N-(hydroxyl-methyl) norcotinine], the “average share of cotinine metabolites in urine” value [2] is given as 4%.

For CCC1(c2ccccc2)C(=O)NC(=O)NC1=O [phenobarbital], the “increase of COX production” value (P450) is listed as “eightfold”.

In the case of CC(C)(C(=O)c1cccnc1)c1cccnc1 [metyrapone], the “effect on phenobarbital-induced increase of COX production” value (P450) is given as “negated”.

For CN1CCC[C@H]1c1cccnc1 [nicotine], the Km (CYP2A6) is given as 95 µM, the “share of metabolism via formation of cotinine by CYP2A6” value [3] is given as roughly 70% and the Km (CYP2B6 [4]) is given as 550 µM.

In the case of CN1C(=O)CC[C@H]1c1cccnc1 [cotinine], the “half-life of elimination from plasma” value [5] is listed as 10 to 27 h, the Km at 30 min (CYP2B6 [6]) is listed as 810 ± 24 µM and the Km at 30 min (CYP3A4) is listed as greater than 10 mM. For the same molecule, the Km ([7]; COX formation from cotinine) was 550 ± 49 µM, the Vmax ([7]; COX formation) was 587 ± 26 pmol/min/mg and the Km at 30 min (CYP2E1) was greater than 10 mM.

With N[C@@H]1C[C@H]1c1ccccc1 (racemic) [tranylcypromine] the “decrease in COX formation” value ([1]; 1 µM inhibitor) was 15%.
